Laboratory results: US20050255493A1, “Molecular targeting of the IGF-1 receptor” (priority 2002, published 2005)

Key:
[1] = system: IGF1R mRNA; assay: Oligonucleotide scanning array hybridisation with labelled transcript; type: binding, human; settings: for Rel hyb intensity: relative to the most strongly hybridising sequence on the array; for Hyb intensity: scanning array probed with labelled IGF1R mRNA; for Hybridisation to IGF1R mRNA on scanning array: 37° C. (and 23° C.)
Protocol: Scanning arrays complementary to the region of the IGF1R mRNA from position 537-685 were prepared using the standard techniques described in Southern E. M. et al., Nucleic Acids Res., 1994, 22(8): 1368-1373; and Sohail, M. and Southern, E. M. “Using oligonucleotide scanning arrays to find effective antisense reagents”, Methods in Molecular Biology, vol. 170: DNA Arrays: Methods and Protocols, Ed J. B. Rampal, Humana Press Inc., Totowa, N.J.
The scanning arrays comprise sets of oligonucleotides of various lengths. A series of oligonucleotides, complementary to the target mRNA, is made by sequential coupling of nucleotides to a solid surface. The DNA synthesis reagents are applied to a confined area on the surface of the solid support using a mask. The mask is shifted along the surface after each round of coupling, resulting in a series of oligonucleotides each complementary to a region of the target sequence.
• 2. Remove 1 μL for quantitation (see below). • 3. Remove unincorporated label by Sephadex® G25 column chromatography (see Note 11). • 4. Save 1 μL of the purified transcript for quantitation (see below). • 5. Check the integrity of the transcript by denaturing polyacrylamide gel electrophoresis (10). • 6. Add 10 μL of the scintillation fluid to the samples saved in Steps 2 and 4. • 7. Mix by vortexing and count the samples in a scintillation counter for 1 min. • 8. Calculate the percent incorporation: [formula] • 9. Calculate the amount of RNA made: [formula] Hybridisation to Arrays Made on Polypropylene • 1. Place the array in the hybridisation tube, coiling it in a spiral. • 2. Dilute the radiolabelled transcript in an appropriate volume (10-20 mL depending upon the size of the array and the hybridisation tube) of hybridisation buffer. The mix should cover the array along the length of the tube. • 3. Place items 1 and 2 in the oven at desired temperature for 30 min. Also put approximately 100 mL of the hybridisation buffer in the oven: this is to be used to wash the array at the end of hybridisation. • 4. Pour the hybridisation mix into the tube containing the array and hybridise for 3-4 h. • 5. Remove the hybridisation mix. Briefly wash the array with the hybridisation buffer from Step 3, air dry, cover with cling film and expose to a storage phosphor screen for 16-20 h (see Note 12). • 6. Scan the screen on PhosphorImager or STORM and analyse the image using xvseq (see below). Hybridisation to Arrays Made on Glass • 1. Clean the non-array glass plate with acetone and ethanol to ensure it is grease-free and siliconise it by treatment with dimethyl dichlorosilane solution and place it in lidded box. Also place moist paper towel in the box. • 2. Dilute the radiolabelled transcript in an appropriate volume of the hybridisation buffer (for example, for an array of 250 mm×50 mm use 500-750 μL). • 3. Place items 1 and 2 in an incubator at desired temprature for 30 min. Also put approximately 100 mL of the hybridisation buffer in the oven: this is to be used to wash the array at the end of hybridisation. • 4. Using a micropipette, pipette the hybridisation mix in a line evenly along the length of the non-array glass plate, avoiding formation of air bubbles. • 5. Starting at one end, carefully place the scanning array (face down) on top of the hybridisation mix. The mix will spread out and form a thin film between the two plates. Incubate for 3-4 h. • 6. Separate the plates from each other and wash the array plate with hybridisation buffer to remove unbound mix. Drain the plate, air dry, cover with cling film and expose to a storage phosphor screen for 16-20 h. • 7. Scan the screen on PhosphorImager or STORM and analyse the image using xvseq (see below). Alternative Hybridisation Protocol for Glass or Polypropylene • 1. Assemble with clips the array plate (or polypropylene array pasted with PhotoMount™ on a glass plate) and the non-array plate, using rubber tubing as spacers on two sides. • 2. […]

[2] = system: IR; assay: IR level by immunoblotting in transfected MDA-231 cells; type: cell-based, human; settings: for IR Protein Level (% control): 48 hr, vs scrambled control; for IR downregulation: TSS ASO at 300 nM; for Selectivity for IGF1R mRNA versus IR mRNA: compared with TSS ASO
Protocol: (§1) The human and murine cell lines used in this study were cultured in RPMI 1640 plus 10% FCS at 37° C. in a humidified atmosphere of 5% CO2. The cultures were negative when tested for Mycoplasma infection. Cultures were passaged the day before transfection to achieve 30-50% confluence the following day. Initial transfections of ASOs used 1-2.5 μg/ml Cytofectin (Glen Research, Sterling, Va.), according to the manufacturer's instructions. Latterly Oligofectamine (Life Sciences) has been used for all ASO and RNAi transfections. The method was as described (see manufacturer's instructions and www.dharmacon.com) with minor modifications. For transfection of monolayers seeded in 6 well plates, 5 μl phosphorothioate oligonucleotide or RNA duplex at 100× final concentration were mixed with 2501 serum-free Optimem (Gibco-BRL). In a separate tube 2 μl Oligofectamine was mixed with 68 μl Optimem. After 10 min incubation at room temperature the contents of the two tubes were mixed and incubated for a further 25 min at room temperature. Monolayers were washed with 1-2 ml Optimem. To the cells were added 175 μl Optimem followed by the 325 μl complexes. Volumes were scaled up by factors of 2.22 or 6.05 for transfection in 60 mm or 100 mm dishes respectively. Cultures were incubated at 37° C. for 4 hr, and then 50 μl FCS and 3.5 ml RPMI plus 5% FCS were added to each well. After 48 hr incubation effects on IGF1R and IR expression were determined by immunoblotting. Some transfected cultures were serum-starved overnight, divided into two aliquots and treated with 10 nM Long R3-IGF-I (GroPep, Adelaide) or diluent for 30 min at 37° C. prior to lysis.
(§2) IGF1R expression was assessed by immunoblotting as previously described (Macaulay et al 2001). After washing in ice-cold PBS, cells were lysed in 50 mM Hepes pH 7.5, 100 mM NaCl, 10 mM EDTA, 1% Triton-X-100, 4 mM sodium pyrophosphate, 2 mM sodium orthovanadate, 10 mM sodium fluoride, 1 mM PMSF, 2 μg/ml each leupeptin and aprotinin. Lysates were centrifuged for 15 minutes at 14,000 g, the protein concentration of supernatants was measured using BCA assay reagent (Pierce), and equivalent amounts of protein were separated on 7.5% SDS-PAGE gels and transferred to nitrocellulose. Target protein levels were assessed using antibodies to the β-subunit of the IGF1R or IR (Santa Cruz), phospho-Ser 473 Akt or total Akt (Cell Signalling, New England Biolabs) or β-tubulin (Sigma). Activated IGF1R was detected by immunoprecipitation for phosphotyrosine (P-Tyr-100, Cell Signaling Technology). Primary antibodies were detected with HRP-conjugated secondary antibodies (Dako), and ECL Plus (Amersham Pharmacia).
(§3) The ASOs and RNAi duplexes were transfected into MDA-231 cells (human ER negative breast cancer) using Cytofectin or Oligofectamine, as described above. After 48 hr the cells were lysed, and IGF1R and IR levels were measured by immunoblotting. The intensity of the autoradiographic bands was quantified by densitometry, and IGF1R (or IR) levels were corrected for loading differences. The specific IGF1R or IR results are presented as % IGF1R (or IR) level of that in cells transfected with the same concentration of an appropriate control. This was a scrambled control oligonucleotide for ASOs, and an inverted RNA duplex for RNAi.

[3] = system: IGF1R; assay: IGF1R level by immunoblotting in transfected MDA-231 cells; type: cell-based, human; settings: for IGF1R Protein Level (% control): MDA-231 cells, 48 hr, vs scrambled control
Protocol: as §1, §2, §3

[4] = system: MDA-MB-231 cells; assay: Clonogenic survival and post-irradiation survival (SF2) of transfected MDA-MB-231 cells; type: cell-based, human; settings: MDA-MB-231, 100 nM
Protocol: FIG. 7 A) MDA-MB-231 cells transfected with 100 nM RNA duplexes were serum-starved overnight and treated with 50 nM IGF-I for 30 min. […] Results represent mean±sem of colony counts in triplicate dishes. Similar results were obtained in two further clonogenic assays. • C) Clonogenic survival of transfected MDA-MB-231 cells that were unirradiated or irradiated at 2Gy. The fraction surviving 2Gy irradiation (SF2) is shown as mean±sem of three independent assays.
The effect of transfection with 100 nM ASO4 or siRNA duplexes R4 and R5, equivalent to strongly and weakly hybridizing ASOs respectively, on colony forming efficiency and post-irradiation survival was also evaluated. […] This in turn illustrates the utility of hybridisation to the scanning ASO array in the selection of siRNA reagents, since relative hybridisation to the array is found to be predictive of activity in RNA interference and biological efficacy.

Row | Substance | Rel hyb intensity [1] | Hyb intensity [1] | Hybridisation to IGF1R mRNA on scanning array [1] | IR Protein Level (% control) ([2]; 30 nM ASO) | IR Protein Level (% control) ([2]; 300 nM ASO) | IR downregulation [2] | Selectivity for IGF1R mRNA versus IR mRNA [2] | IGF1R Protein Level (% control) ([3]; 30 nM ASO) | IGF1R Protein Level (% control) ([3]; 300 nM ASO) | Survival after 2Gy irradiation (SF2) ([4]; 2Gy) | Clonogenic survival ([4]; unirradiated) | IGF1R downregulation compared between 21mer duplexes ([3]; MDA-231 cells, 0.5, 5 and 50 nm (FIG. 5))
1 | 15mer: 15mer sequence described by Wraight et al. which falls within the region 537-685, gtgcagcagcggtag (DNA GTGCAGCAGCGGTAG; further chemistry not given here) [reference compound] | 0.03 | 1695 |  |  |  |  |  |  |  |  |  | 
2 | ASO1 (20mer): phosphorothioate antisense oligonucleotide CGGCTTCTCCTCCATGGTCC, SEQ ID NO:2 (DNA, all phosphorothioate, methylation of C not given here) |  |  | hybridised strongly | 112 | 135 | did not cause significant downregulation of IR | greater selectivity for IGF1R mRNA versus IR mRNA | 66 ± 23 | 38 ± 6 |  |  | 
3 | ASO2 (20mer): phosphorothioate antisense oligonucleotide TGGTCTTCTCACACATCGGC, SEQ ID NO:7 (DNA, all phosphorothioate, methylation of C not given here) |  |  | hybridised strongly |  |  |  |  | 84 ± 11 | 47 ± 5 |  |  | 
4 | ASO3: phosphorothioate antisense oligonucleotide ATTGTTGATGGTGGTCTTCT, SEQ ID NO:11 (DNA, all phosphorothioate, methylation of C not given here) | >0.13 | >7048 | hybridises only at 23 °C |  |  |  |  | 105 ± 18 | 104 ± 22 |  |  | 
5 | ASO4: phosphorothioate antisense oligonucleotide GCGGTAGTTGTACTCATTGT, SEQ ID NO:13 (DNA, all phosphorothioate, methylation of C not given here) | >0.59 | >33,162 | hybridised strongly | 97 | 92 | did not cause significant downregulation of IR | greater selectivity for IGF1R mRNA versus IR mRNA | 73 ± 2 | 49 ± 2 | entirely non-specific | entirely non-specific | 
6 | ASO5: phosphorothioate antisense oligonucleotide GTGGTCCAGCAGCGGTAGTT, SEQ ID NO:15 (DNA, all phosphorothioate, methylation of C not given here) | >0.07 | >4150 | hybridised strongly |  |  |  |  |  |  |  |  | 
7 | Mut2: R2 duplex with single base pair mutation GCCGAUGUGUGUGAAGACCTT / TTCGGCUACACACACUUCUGG, SEQ ID NO:28 (sense GCCGAUGUGUGUGAAGACCNN; chemistry not fully specified; one strand is listed 3' to 5') |  |  |  |  |  |  |  |  |  |  |  | partially, though not completely, blocked
